From patent US10323027B2, “2,3-dihydro-4H-1,3-benzoxazin-4-one derivatives as modulators of cholinergic muscarinic M1 receptor” (Takeda Pharmaceutical Company Limited, priority 2015, dated 2019)
Structures can show the parent of a compound that is named as a salt.

Molecular target: T1, human M1 receptor (hCHRM1) (Homo sapiens, UniProt P11229)
T1 construct: expressed in transfected cells
T1 sequence (P11229 1-460): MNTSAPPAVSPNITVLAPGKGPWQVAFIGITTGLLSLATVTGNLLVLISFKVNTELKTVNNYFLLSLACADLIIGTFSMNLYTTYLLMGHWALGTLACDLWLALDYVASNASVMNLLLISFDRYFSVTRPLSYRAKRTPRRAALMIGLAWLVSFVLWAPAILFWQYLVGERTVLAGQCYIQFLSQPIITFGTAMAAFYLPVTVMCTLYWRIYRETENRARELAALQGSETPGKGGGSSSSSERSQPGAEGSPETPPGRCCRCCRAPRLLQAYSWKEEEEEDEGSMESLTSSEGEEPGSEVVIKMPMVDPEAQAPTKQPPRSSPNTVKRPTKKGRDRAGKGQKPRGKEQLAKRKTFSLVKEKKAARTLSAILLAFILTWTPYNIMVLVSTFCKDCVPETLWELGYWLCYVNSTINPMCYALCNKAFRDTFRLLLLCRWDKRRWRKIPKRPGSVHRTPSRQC
Experiment: Measurement of M1 receptor positive allosteric modulator (M1PAM) activity, Ca2+ fluorescence by FLIPRtetra (Experimental Example 1)
Assay type: cell-based
Conditions: for activity (%) at 10 μM: 10 μM test compound, 100% = acetylcholine 1 μM, 0% = DMSO; for EC50: inflection point of concentration-dependent curve, in presence of acetylcholine at EC20 (0.8-1.0 nM), CHO-K1 cells expressing hCHRM1, read-out: IP value
Description: Measurement of M1 Receptor Positive Allosteric Modulator (M1PAM) Activity
The activity of a test compound in the presence of acetylcholine at EC20 concentration (final concentration 0.8-1.0 nM), which affords an action corresponding to about 20% of the maximum activity, was measured as PAM activity. The method is as follows. CHO-K1 cells stably expressing a human M1 receptor (hCHRM1) were plated on a 384-well black clear bottom plate (BD Falcon) at 5,000 cells/well, and cultured in an incubator at 37° C., 5% CO2 for 1 day. The medium in the cell plate was removed, and a dye solution (prepared by adding Recording medium (DOJINDO LABORATORIES) to a final concentration of 1×concentration, Fluo-4 AM (DOJINDO LABORATORIES) to a final concentration of 2.5 μg/mL, Pluronic F127 (DOJINDO LABORATORIES) to a final concentration of 0.08%, and probenecid (DOJINDO LABORATORIES) to a final concentration of 1.25 mM to assay buffer (HBSS (Invitrogen), 20 mM HEPES (Invitrogen), 0.1% BSA (Wako Pure Chemical Industries, Ltd.))) was added at 30 μL/well. The cells were left standing in the incubator at 37° C., 5% CO2 for 30 min, and further left standing at room temperature for 30 min. A test compound prepared by diluting with assay buffer containing 3.2-4.0 nM acetylcholine was added at 10 μL/well, and the fluorescence was measured by FLIPRtetra (Molecular Devices) for 1 min every 1 second. With the definition that the amount of change in the fluorescence on addition of acetylcholine (final concentration 1 μM) is 100% and that on addition of DMSO instead of a test compound is 0%, the activity (%) of the test compound was calculated, and the inflection point in the concentration-dependent curve of the test compound was calculated as IP values.

| activity (%) at 10 μM [%] | EC50 [nM] | Compound |
| --- | --- | --- |
| 104 | 1.8 | Cn1cc(-c2ccc(Cc3cc4c(c5ccccc35)OCN([C@H]3CCCC[C@@H]3O)C4=O)cn2)cn1 (relative stereo) [Example 41, 3-(trans-2-hydroxycyclohexyl)-6-((6-(1-methyl-1H-pyrazol-4-yl)pyridin-3-yl)methyl)-2,3-dihydro-4H-naphtho[2,1-e][1,3]oxazin-4-one] |
| 109 | 4.9 | COc1ccc(Cc2cc3c(c4ccccc24)OCN([C@H]2COCC[C@@H]2O)C3=O)cn1 [Example 46, 1,5-anhydro-2,4-dideoxy-2-(6-((6-methoxypyridin-3-yl)methyl)-4-oxo-2H-naphtho[2,1-e][1,3]oxazin-3(4H)-yl)-L-threo-pentitol] |
| 102 | 8.6 | Cc1c(Cc2ccc(-n3cccn3)cc2)cc2c(c1F)OCN([C@H]1CCC[C@@H]1O)C2=O (relative stereo) [Example 30, 8-fluoro-3-(trans-2-hydroxycyclopentyl)-7-methyl-6-(4-(1H-pyrazol-1-yl)benzyl)-2,3-dihydro-4H-1,3-benzoxazin-4-one] |
| 102 | 7 | Cc1ccc(Cc2cc3c(c(Cl)c2C)OCN([C@H]2COCC[C@@H]2O)C3=O)cn1 [Example 6, 1,5-anhydro-2-(8-chloro-7-methyl-6-((6-methylpyridin-3-yl)methyl)-4-oxo-2H-1,3-benzoxazin-3(4H)-yl)-2,4-dideoxy-L-threo-pentitol] |
| 93 | 44 | Cn1cc(-c2ccc(Cc3ccc4c(c3)C(=O)N([C@H]3CCCC[C@@H]3O)CO4)cc2)cn1 (relative stereo) [Example 66, 3-(trans-2-hydroxycyclohexyl)-6-(4-(1-methyl-1H-pyrazol-4-yl)benzyl)-2,3-dihydro-4H-1,3-benzoxazin-4-one] |
| 102 | 60 | N#CC1CCN(Cc2cc3c(c4ccccc24)OCN([C@H]2CCC[C@@H]2O)C3=O)C1 (stereo partly drawn) [Example 75, 1-((3-((1S,2S)-2-hydroxycyclopentyl)-4-oxo-3,4-dihydro-2H-naphtho[2,1-e][1,3]oxazin-6-yl)methyl)pyrrolidine-3-carbonitrile (diastereoisomer)] |
| 106 | 16 | O=C1c2cc(CN3CCSCC3)c3ccccc3c2OCN1[C@H]1CCC[C@@H]1O [Example 57, 3-((1S,2S)-2-hydroxycyclopentyl)-6-(thiomorpholin-4-ylmethyl)-2,3-dihydro-4H-naphtho[2,1-e][1,3]oxazin-4-one] |
| 109 | 1.2 | Cc1c(Cc2ccc(-c3ccn(C)n3)nc2)cc2c(c1C)OCN([C@H]1COCC[C@@H]1O)C2=O [Example 37, 1,5-anhydro-2,4-dideoxy-2-(7,8-dimethyl-6-((6-(1-methyl-1H-pyrazol-3-yl)pyridin-3-yl)methyl)-4-oxo-2H-1,3-benzoxazin-3(4H)-yl)-L-threo-pentitol] |
| 96 | 11 | Cc1c(Cc2ccc(-n3cccn3)cc2)cc2c(c1C)OCN([C@H]1CCCC[C@@H]1O)C2=O (relative stereo) [Example 53, 3-(trans-2-hydroxycyclohexyl)-7,8-dimethyl-6-(4-(1H-pyrazol-1-yl)benzyl)-2,3-dihydro-4H-1,3-benzoxazin-4-one] |
| 99 | 17 | Cc1c(Cc2ccc(Cl)nc2)cc2c(c1C)OCN([C@H]1COCC[C@@H]1O)C2=O (relative stereo) [Example 31, 1,5-anhydro-2-(6-((6-chloropyridin-3-yl)methyl)-7,8-dimethyl-4-oxo-2H-1,3-benzoxazin-3(4H)-yl)-2,4-dideoxy-threo-pentitol] |
| 91 | 3.6 | Cc1ccc(Cc2cc3c(c4ccccc24)OCN([C@H]2COCC[C@@H]2O)C3=O)cn1 [Example 133, 1,5-anhydro-2,4-dideoxy-2-(6-((6-methylpyridin-3-yl)methyl)-4-oxo-2H-naphtho[2,1-e][1,3]oxazin-3(4H)-yl)-L-threo-pentitol] |
| 95 | 8.5 | Cc1ccc(Cc2cc3c(c(C)c2C)OCN([C@H]2CCC[C@@H]2O)C3=O)cn1 [Example 11, 3-((1S,2S)-2-hydroxycyclopentyl)-7,8-dimethyl-6-((6-methylpyridin-3-yl)methyl)-2,3-dihydro-4H-1,3-benzoxazin-4-one] |
| 109 | 5.8 | Cc1cc2c(cc1Cc1ccc(-n3cccn3)cc1)C(=O)N([C@H]1CCC[C@@H]1O)CO2 [Example 35, 3-((1S,2S)-2-hydroxycyclopentyl)-7-methyl-6-(4-(1H-pyrazol-1-yl)benzyl)-2,3-dihydro-4H-1,3-benzoxazin-4-one] |
| 109 | 16 | O=C1c2cc(Cc3ccc(Cl)nc3)c3ccccc3c2OCN1[C@H]1CCCC[C@@H]1O (relative stereo) [Example 56, 6-((6-chloropyridin-3-yl)methyl)-3-(trans-2-hydroxycyclohexyl)-2,3-dihydro-4H-naphtho[2,1-e][1,3]oxazin-4-one] |
| 115 | 230 | Cn1cc(-c2ccc(Cc3ccc4c(c3)C(=O)N(c3ccccc3F)CO4)cn2)cn1 [Example 88, 3-(2-fluorophenyl)-6-((6-(1-methyl-1H-pyrazol-4-yl)pyridin-3-yl)methyl)-2,3-dihydro-4H-1,3-benzoxazin-4-one] |
| 104 | 59 | COc1c(Cc2ccc(-c3cnn(C)c3)nc2)cc2c(c1F)OCN(CC1CCCO1)C2=O (centres unmarked) [Example 74, 8-fluoro-7-methoxy-6-((6-(1-methyl-1H-pyrazol-4-yl)pyridin-3-yl)methyl)-3-(tetrahydrofuran-2-ylmethyl)-2,3-dihydro-4H-1,3-benzoxazin-4-one] |
| 98 | 4.6 | Cc1c(Cc2ccc(-c3ccn(C)n3)cc2)cc2c(c1F)OCN([C@H]1CCC[C@@H]1O)C2=O [Example 9, 8-fluoro-3-((1S,2S)-2-hydroxycyclopentyl)-7-methyl-6-(4-(1-methyl-1H-pyrazol-3-yl)benzyl)-2,3-dihydro-4H-1,3-benzoxazin-4-one] |
| 99 | 3.9 | Cc1c(Cc2ccc(C#N)cc2)cc2c(c1C)OCN([C@H]1CCC[C@@H]1O)C2=O [Example 44, 4-((3-((1S,2S)-2-hydroxycyclopentyl)-7,8-dimethyl-4-oxo-3,4-dihydro-2H-1,3-benzoxazin-6-yl)methyl)benzonitrile] |
| 99 | 100 | COc1ccc(Cc2cc3c(cc2C)OCN([C@H]2COCC[C@@H]2O)C3=O)cc1 (relative stereo) [Example 86, 1,5-anhydro-2,4-dideoxy-2-(6-(4-methoxybenzyl)-7-methyl-4-oxo-2H-1,3-benzoxazin-3(4H)-yl)-threo-pentitol] |
| 105 | 45 | Cc1c(Cc2ccc(Cl)nc2)cc2c(c1F)OCN([C@H]1COCC[C@@H]1O)C2=O [Example 19, 1,5-anhydro-2-(6-((6-chloropyridin-3-yl)methyl)-8-fluoro-7-methyl-4-oxo-2H-1,3-benzoxazin-3(4H)-yl)-2,4-dideoxy-L-threo-pentitol] |
| 103 | 2.5 | Cc1ccc(Cc2cc3c(c4ccccc24)OCN([C@H]2COCC[C@@H]2O)C3=O)cn1 (single isomer, unassigned) [Example 3, 1,5-anhydro-2,4-dideoxy-2-(6-((6-methylpyridin-3-yl)methyl)-4-oxo-2H-naphtho[2,1-e][1,3]oxazin-3(4H)-yl)-threo-pentitol monohydrochloride (optical isomer)] |
| 101 | 11 | Cc1cc2c(cc1Cc1ccc(-n3cccn3)cc1)C(=O)N([C@H]1CCCC[C@@H]1O)CO2 (relative stereo) [Example 52, 3-(trans-2-hydroxycyclohexyl)-7-methyl-6-(4-(1H-pyrazol-1-yl)benzyl)-2,3-dihydro-4H-1,3-benzoxazin-4-one] |
